How the values were obtained:
[1] = target: Ephrin type-B receptor 6 (Homo sapiens) (UniProt O15197); details: Compound concentration 1000.0 nM
[2] = target: Mitogen-activated protein kinase kinase kinase 19 (Homo sapiens) (UniProt Q56UN5); details: Compound concentration 1000.0 nM
[3] = target: Serine/threonine-protein kinase MRCK alpha (Homo sapiens) (UniProt Q5VT25); details: Compound concentration 1000.0 nM
[4] = test system: Tyrosine-protein kinase ABL1 (Homo sapiens), P00519 [T315I]; details: Compound concentration 1000.0 nM
[5] = test system: Tyrosine-protein kinase ABL1 (Homo sapiens), P00519 [Q252H]; details: Compound concentration 1000.0 nM
[6] = target: RAF proto-oncogene serine/threonine-protein kinase (Homo sapiens) (UniProt P04049); details: Compound concentration 1000.0 nM
[7] = target: Serine/threonine-protein kinase DCLK1 (Homo sapiens) (UniProt O15075); details: Compound concentration 1000.0 nM
[8] = target: Mitogen-activated protein kinase 10 (Homo sapiens) (UniProt P53779); details: Compound concentration 1000.0 nM
[9] = target: Protein kinase C iota type (Homo sapiens) (UniProt P41743); details: Compound concentration 1000.0 nM
Protein kinase C iota type (Homo sapiens), sequence (P41743 whole entry): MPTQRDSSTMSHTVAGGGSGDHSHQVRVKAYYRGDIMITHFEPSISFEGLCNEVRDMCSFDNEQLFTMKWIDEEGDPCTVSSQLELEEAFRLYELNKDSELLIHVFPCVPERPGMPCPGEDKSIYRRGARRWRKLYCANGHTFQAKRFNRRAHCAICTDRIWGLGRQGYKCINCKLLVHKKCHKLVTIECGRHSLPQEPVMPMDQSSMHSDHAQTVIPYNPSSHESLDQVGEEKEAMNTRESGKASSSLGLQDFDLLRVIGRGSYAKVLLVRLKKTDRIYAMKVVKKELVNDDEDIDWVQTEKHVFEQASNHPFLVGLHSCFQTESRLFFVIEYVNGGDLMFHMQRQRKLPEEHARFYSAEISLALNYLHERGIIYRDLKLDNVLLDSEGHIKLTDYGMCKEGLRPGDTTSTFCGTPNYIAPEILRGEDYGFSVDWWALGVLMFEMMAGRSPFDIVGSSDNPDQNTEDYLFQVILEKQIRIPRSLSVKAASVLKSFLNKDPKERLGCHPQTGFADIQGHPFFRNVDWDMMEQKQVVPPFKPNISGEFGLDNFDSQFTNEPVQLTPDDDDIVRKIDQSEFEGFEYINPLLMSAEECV

[10] = target: Wee1-like protein kinase (Homo sapiens) (UniProt P30291); details: Compound concentration 1000.0 nM
[11] = target: Serine/threonine-protein kinase SIK1 (Homo sapiens, UniProt P57059); details: Compound concentration 1000.0 nM
Serine/threonine-protein kinase SIK1, sequence (P57059 whole entry, canonical isoform): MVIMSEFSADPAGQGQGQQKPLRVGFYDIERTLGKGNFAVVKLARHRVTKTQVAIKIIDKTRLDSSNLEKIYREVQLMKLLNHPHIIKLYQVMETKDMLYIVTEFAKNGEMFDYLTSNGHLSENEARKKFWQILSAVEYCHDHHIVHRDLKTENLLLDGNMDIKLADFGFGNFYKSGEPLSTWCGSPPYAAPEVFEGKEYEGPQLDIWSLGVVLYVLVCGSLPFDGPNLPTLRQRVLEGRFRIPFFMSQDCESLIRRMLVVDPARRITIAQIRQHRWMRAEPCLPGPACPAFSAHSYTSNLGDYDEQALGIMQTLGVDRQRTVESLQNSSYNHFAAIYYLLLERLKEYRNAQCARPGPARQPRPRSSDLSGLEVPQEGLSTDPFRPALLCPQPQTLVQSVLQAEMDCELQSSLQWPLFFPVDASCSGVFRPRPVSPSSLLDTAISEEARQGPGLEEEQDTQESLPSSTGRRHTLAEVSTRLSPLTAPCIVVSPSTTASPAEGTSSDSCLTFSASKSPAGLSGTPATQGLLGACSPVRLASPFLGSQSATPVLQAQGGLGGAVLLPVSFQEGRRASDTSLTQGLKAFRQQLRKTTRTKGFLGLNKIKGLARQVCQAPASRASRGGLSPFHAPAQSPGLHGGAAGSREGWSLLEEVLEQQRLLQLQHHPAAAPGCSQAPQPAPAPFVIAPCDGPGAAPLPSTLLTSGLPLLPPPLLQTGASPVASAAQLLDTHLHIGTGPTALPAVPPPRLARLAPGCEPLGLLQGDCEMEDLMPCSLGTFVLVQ

[12] = test system: Phosphatidylinositol 4,5-bisphosphate 3-kinase catalytic subunit alpha isoform (Homo sapiens), P42336 [I800L]; details: Compound concentration 1000.0 nM
[13] = target: cAMP-dependent protein kinase catalytic subunit alpha (Homo sapiens) (UniProt P17612); details: Compound concentration 1000.0 nM
[14] = test system: Phosphatidylinositol 4,5-bisphosphate 3-kinase catalytic subunit alpha isoform (Homo sapiens), P42336 [H1047Y]; details: Compound concentration 1000.0 nM
[15] = target: Tyrosine-protein kinase SYK (Homo sapiens) (UniProt P43405); details: Compound concentration 1000.0 nM
[16] = target: Mitotic checkpoint serine/threonine-protein kinase BUB1 (Homo sapiens) (UniProt O43683); details: Compound concentration 1000.0 nM
[17] = target: Proto-oncogene tyrosine-protein kinase receptor Ret (Homo sapiens) (UniProt P07949); details: Compound concentration 1000.0 nM
Proto-oncogene tyrosine-protein kinase receptor Ret (Homo sapiens), sequence (P07949 whole entry): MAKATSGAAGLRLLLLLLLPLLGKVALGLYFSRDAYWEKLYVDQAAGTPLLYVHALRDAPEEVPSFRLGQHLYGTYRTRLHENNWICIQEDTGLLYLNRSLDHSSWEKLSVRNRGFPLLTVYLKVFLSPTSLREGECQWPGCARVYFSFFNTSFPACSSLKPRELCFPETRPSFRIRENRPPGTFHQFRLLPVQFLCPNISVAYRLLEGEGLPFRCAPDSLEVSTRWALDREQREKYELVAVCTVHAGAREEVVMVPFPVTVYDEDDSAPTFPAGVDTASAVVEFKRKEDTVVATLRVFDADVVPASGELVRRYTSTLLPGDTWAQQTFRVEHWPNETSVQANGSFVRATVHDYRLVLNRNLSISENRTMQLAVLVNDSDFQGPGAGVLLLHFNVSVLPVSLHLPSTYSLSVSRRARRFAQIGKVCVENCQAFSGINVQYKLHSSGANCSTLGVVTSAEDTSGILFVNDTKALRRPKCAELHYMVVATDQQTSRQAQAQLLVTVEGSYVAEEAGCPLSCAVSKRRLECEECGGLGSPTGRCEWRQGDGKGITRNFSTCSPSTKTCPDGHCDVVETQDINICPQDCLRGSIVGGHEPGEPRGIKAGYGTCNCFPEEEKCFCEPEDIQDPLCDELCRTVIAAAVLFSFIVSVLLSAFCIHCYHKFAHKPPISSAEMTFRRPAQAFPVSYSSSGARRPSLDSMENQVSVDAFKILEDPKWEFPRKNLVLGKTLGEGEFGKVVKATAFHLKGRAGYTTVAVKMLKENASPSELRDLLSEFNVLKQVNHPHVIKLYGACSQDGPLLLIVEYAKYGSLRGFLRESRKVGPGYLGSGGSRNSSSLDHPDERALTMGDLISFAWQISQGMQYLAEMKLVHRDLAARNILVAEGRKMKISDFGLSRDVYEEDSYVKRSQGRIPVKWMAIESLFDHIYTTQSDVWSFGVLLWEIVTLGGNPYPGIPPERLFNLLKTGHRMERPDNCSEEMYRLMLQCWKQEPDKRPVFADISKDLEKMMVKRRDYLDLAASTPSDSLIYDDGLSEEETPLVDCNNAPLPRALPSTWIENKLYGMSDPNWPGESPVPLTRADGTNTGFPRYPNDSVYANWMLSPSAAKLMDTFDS

[18] = target: Serine/threonine-protein kinase ULK1 (Homo sapiens) (UniProt O75385); details: Compound concentration 1000.0 nM
[19] = target: Serine/threonine-protein kinase WNK3 (Homo sapiens) (UniProt Q9BYP7); details: Compound concentration 1000.0 nM
[20] = test system: Tyrosine-protein kinase ABL1 (Homo sapiens), P00519 [Y253F]; details: Compound concentration 1000.0 nM
[21] = target: Platelet-derived growth factor receptor alpha (Homo sapiens) (UniProt P16234); details: Compound concentration 1000.0 nM
[22] = target: Aurora kinase A (Homo sapiens) (UniProt O14965); details: Compound concentration 1000.0 nM
[23] = target: T1, D(4) dopamine receptor (Homo sapiens) (UniProt P21917); details: Compound concentration 10.0 uM
T1 sequence (whole entry): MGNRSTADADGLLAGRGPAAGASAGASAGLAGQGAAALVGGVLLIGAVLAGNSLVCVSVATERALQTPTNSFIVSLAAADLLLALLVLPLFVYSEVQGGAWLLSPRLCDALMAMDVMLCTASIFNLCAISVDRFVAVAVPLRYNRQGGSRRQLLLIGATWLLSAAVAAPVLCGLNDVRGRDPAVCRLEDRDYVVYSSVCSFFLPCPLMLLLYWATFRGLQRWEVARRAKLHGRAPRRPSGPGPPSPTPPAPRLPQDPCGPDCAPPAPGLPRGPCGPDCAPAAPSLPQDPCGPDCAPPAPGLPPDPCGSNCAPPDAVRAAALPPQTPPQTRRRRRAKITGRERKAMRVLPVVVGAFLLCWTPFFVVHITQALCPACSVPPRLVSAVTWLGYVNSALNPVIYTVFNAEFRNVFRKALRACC

[24] = target: Testis-specific serine/threonine-protein kinase 3 (Homo sapiens) (UniProt Q96PN8); details: Compound concentration 1000.0 nM
[25] = target: TGF-beta receptor type-2 (Homo sapiens) (UniProt P37173); details: Compound concentration 1000.0 nM
[26] = target: Serine/threonine-protein kinase MRCK beta (Homo sapiens) (UniProt Q9Y5S2); details: Compound concentration 1000.0 nM
[27] = target: Fibroblast growth factor receptor 1 (Homo sapiens) (UniProt P11362); details: Compound concentration 1000.0 nM
[28] = target: Casein kinase I isoform alpha-like (Homo sapiens) (UniProt Q8N752); details: Compound concentration 1000.0 nM
[29] = target: Serine/threonine-protein kinase Nek2 (Homo sapiens) (UniProt P51955); details: Compound concentration 1000.0 nM
[30] = target: Cyclin-dependent kinase 9 (Homo sapiens) (UniProt P50750); details: Compound concentration 1000.0 nM
[31] = target: Serine/threonine-protein kinase pim-3 (Homo sapiens) (UniProt Q86V86); details: Compound concentration 1000.0 nM
[32] = target: Calcium/calmodulin-dependent protein kinase type 1B (Homo sapiens, UniProt Q6P2M8); details: Compound concentration 1000.0 nM
Calcium/calmodulin-dependent protein kinase type 1B, sequence (Q6P2M8 whole entry): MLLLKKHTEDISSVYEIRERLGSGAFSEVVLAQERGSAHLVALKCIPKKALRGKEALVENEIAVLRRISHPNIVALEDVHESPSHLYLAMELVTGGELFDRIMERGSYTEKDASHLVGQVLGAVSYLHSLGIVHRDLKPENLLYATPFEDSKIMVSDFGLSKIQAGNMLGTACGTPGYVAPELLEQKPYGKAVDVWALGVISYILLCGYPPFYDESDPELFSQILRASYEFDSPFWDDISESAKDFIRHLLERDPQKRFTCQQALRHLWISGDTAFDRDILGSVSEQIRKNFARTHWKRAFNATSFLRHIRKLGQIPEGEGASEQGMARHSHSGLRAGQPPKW

[33] = target: Serine/threonine-protein kinase tousled-like 2 (Homo sapiens) (UniProt Q86UE8); details: Compound concentration 1000.0 nM
Serine/threonine-protein kinase tousled-like 2 (Homo sapiens), sequence (Q86UE8 whole entry, looked up): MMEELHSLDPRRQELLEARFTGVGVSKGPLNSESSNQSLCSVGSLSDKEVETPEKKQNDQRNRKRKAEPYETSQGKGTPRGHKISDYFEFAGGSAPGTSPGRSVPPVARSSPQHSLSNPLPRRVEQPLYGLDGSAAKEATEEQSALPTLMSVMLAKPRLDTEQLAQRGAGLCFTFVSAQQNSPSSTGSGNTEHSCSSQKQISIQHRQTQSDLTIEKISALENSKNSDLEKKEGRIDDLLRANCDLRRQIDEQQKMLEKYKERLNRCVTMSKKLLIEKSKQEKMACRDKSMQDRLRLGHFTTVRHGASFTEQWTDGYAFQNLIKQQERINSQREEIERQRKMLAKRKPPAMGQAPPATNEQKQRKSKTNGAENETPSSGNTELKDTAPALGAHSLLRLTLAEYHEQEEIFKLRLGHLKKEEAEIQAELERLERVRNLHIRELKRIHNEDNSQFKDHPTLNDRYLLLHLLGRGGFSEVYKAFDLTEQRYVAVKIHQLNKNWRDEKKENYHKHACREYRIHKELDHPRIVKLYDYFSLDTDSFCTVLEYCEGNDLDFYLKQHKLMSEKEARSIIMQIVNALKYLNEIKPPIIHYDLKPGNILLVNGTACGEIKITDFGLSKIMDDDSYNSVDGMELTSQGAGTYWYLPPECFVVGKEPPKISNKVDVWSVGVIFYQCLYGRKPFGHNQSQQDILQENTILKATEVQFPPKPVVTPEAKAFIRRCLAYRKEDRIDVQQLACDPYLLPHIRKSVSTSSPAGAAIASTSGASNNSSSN

[34] = test system: Tyrosine-protein kinase ABL1 (Homo sapiens), P00519 [T315I]; details: Compound concentration 1000.0 nM; remark: listed apart in the source
[35] = target: Casein kinase II subunit alpha' (Homo sapiens) (UniProt P19784); details: Compound concentration 1000.0 nM
[36] = target: Cyclin-dependent kinase 15 (Homo sapiens) (UniProt Q96Q40); details: Compound concentration 1000.0 nM
[37] = target: Serine/threonine-protein kinase pim-2 (Homo sapiens) (UniProt Q9P1W9); details: Compound concentration 1000.0 nM
[38] = target: Serine/threonine-protein kinase PRP4 homolog (Homo sapiens) (UniProt Q13523); details: Compound concentration 1000.0 nM
[39] = target: Phosphatidylinositol 4-phosphate 5-kinase type-1 alpha (Homo sapiens) (UniProt Q99755); details: Compound concentration 1000.0 nM

Mitogen-activated protein kinase kinase kinase 19 (Homo sapiens), sequence (Q56UN5 whole entry): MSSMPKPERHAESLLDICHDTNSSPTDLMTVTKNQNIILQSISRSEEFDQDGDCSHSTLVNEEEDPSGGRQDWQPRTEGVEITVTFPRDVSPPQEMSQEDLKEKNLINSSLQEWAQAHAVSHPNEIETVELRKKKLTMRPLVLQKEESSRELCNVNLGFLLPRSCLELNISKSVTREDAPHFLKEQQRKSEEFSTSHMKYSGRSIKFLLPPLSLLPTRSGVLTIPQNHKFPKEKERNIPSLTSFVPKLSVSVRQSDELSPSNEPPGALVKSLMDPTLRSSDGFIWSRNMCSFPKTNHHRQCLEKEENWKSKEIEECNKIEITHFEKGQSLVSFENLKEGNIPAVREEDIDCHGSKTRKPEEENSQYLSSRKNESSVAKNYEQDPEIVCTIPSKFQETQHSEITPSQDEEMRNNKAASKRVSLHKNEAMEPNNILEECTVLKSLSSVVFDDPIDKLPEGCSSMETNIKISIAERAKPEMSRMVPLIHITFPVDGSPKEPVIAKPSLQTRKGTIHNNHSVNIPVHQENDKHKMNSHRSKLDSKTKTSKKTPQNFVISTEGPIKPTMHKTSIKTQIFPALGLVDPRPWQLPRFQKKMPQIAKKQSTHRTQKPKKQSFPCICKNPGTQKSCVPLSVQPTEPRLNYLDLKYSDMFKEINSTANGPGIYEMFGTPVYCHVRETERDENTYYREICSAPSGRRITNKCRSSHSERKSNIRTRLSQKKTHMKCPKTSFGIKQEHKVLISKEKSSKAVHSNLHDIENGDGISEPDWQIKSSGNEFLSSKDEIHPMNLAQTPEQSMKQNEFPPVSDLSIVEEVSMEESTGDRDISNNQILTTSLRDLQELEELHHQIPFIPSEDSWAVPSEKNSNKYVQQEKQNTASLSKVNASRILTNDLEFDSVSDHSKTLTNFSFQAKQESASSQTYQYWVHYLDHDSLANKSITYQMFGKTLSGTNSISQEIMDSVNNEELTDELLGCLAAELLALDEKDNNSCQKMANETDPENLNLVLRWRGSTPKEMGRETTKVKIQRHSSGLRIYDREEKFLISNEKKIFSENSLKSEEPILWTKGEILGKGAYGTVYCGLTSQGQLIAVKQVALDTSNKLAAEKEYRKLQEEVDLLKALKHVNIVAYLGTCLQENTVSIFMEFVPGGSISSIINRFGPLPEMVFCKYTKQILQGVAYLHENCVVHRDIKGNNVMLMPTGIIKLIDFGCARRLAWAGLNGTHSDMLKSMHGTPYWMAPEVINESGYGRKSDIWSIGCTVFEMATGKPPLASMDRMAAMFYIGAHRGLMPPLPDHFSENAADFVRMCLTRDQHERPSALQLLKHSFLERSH

## CCCCN(CCCC)C(=O)CN1C[C@@H](c2cc(OC)c3c(c2)OCO3)[C@H](C(=O)O)[C@H]1CC(C)(C)CCC [A-545]
[1]
  residual activity: 87.7%
[2]
  residual activity: 100%
[3]
  residual activity: 96.6%
[4]
  residual activity: 100%
[5]
  residual activity: 94.6%
[6]
  residual activity: 93.3%
[7]
  residual activity: 81.5%
[8]
  residual activity: 100%
[9]
  residual activity: 100%
[10]
  residual activity: 84.8%
[11]
  residual activity: 100%
[12]
  residual activity: 100%
[13]
  residual activity: 81.9%
[14]
  residual activity: 92.6%
[15]
  residual activity: 100%
[16]
  residual activity: 94.9%
[17]
  residual activity: 86.1%
[18]
  residual activity: 89.2%
[19]
  residual activity: 65.5%
[20]
  residual activity: 100%
[21]
  residual activity: 100%
[22]
  residual activity: 90.2%
[23]
  inhibition: 87.1%
[24]
  residual activity: 100%
[25]
  residual activity: 98.6%
[26]
  residual activity: 100%
[27]
  residual activity: 100%
[28]
  residual activity: 91.1%
[29]
  residual activity: 98.7%
[30]
  residual activity: 100%
[31]
  residual activity: 81.5%
[32]
  residual activity: 100%
[33]
  residual activity: 100%
[34]
  residual activity: 89.2%
[35]
  residual activity: 77.1%
[36]
  residual activity: 93.8%
[37]
  residual activity: 96.3%
[38]
  residual activity: 99.3%
[39]
  residual activity: 100%

## CCCCN(CCCC)C(=O)CN1C[C@H](c2cc(OC)c3c(c2)OCO3)[C@@H](C(=O)O)[C@@H]1CC(C)(C)CCC [ABT-546]
[1]
  residual activity: 100%
[2]
  residual activity: 90.3%
[3]
  residual activity: 100%
[4]
  residual activity: 100%
[5]
  residual activity: 97.7%
[6]
  residual activity: 100%
[7]
  residual activity: 80.2%
[8]
  residual activity: 91.1%
[9]
  residual activity: 100%
[10]
  residual activity: 95.4%
[11]
  residual activity: 100%
[12]
  residual activity: 52.9%
[13]
  residual activity: 100%
[14]
  residual activity: 100%
[15]
  residual activity: 100%
[16]
  residual activity: 75.4%
[17]
  residual activity: 100%
[18]
  residual activity: 79.4%
[19]
  residual activity: 100%
[20]
  residual activity: 86.7%
[21]
  residual activity: 56.1%
[22]
  residual activity: 90.3%
[23]
  inhibition: 21.7%
[24]
  residual activity: 100%
[25]
  residual activity: 100%
[26]
  residual activity: 100%
[27]
  residual activity: 89.4%
[28]
  residual activity: 100%
[29]
  residual activity: 100%
[30]
  residual activity: 100%
[31]
  residual activity: 100%
[32]
  residual activity: 86.5%
[33]
  residual activity: 100%
[34]
  residual activity: 80.7%
[35]
  residual activity: 98.4%
[36]
  residual activity: 100%
[37]
  residual activity: 100%
[38]
  residual activity: 100%
[39]
  residual activity: 100%
